Converted amounts (≈) assume the structure as drawn. Read-outs that look alike come from different tables or passages of the source.
Assays:
[1] = tested on: M. tuberculosis (H37Rv); assay: M. tuberculosis H37Rv resazurin reduction microplate MIC assay, hypoxic conditions (0.1% oxygen); assay type: cell-based, Mycobacterium tuberculosis; conditions: H37Rv, hypoxia (0.1% oxygen)
[2] = in vitro; conditions: human
[3] = Broth microdilution MIC assay, ESKAPE pathogens; assay type: cell-based; conditions: S. aureus, E. coli, K. pneumoniae, A. baumannii, P. aeruginosa; read-out: antibacterial MIC ESKAPE
[4] = tested on: ESKAPE pathogens S. aureus (ATCC 43300), E. coli (ATCC 25922), K. pneumoniae (ATCC 700603), A. baumannii (ATCC 19606), P. aeruginosa (ATCC 27853); assay: Broth microdilution MIC assay, ESKAPE pathogens; assay type: cell-based
[5] = tested on: L. donovani MHOM/IN/80/DD8 (ATCC50212); assay: L. donovani DD8 intracellular (THP-1) amastigote assay; assay type: cell-based; conditions: Leishmania donovani
[6] = Kinetic solubility determination by LC-UV; conditions: room temperature, 1% DMSO
[7] = Mammalian cytotoxicity, liver HepG2 and kidney HEK293 cell lines stated together; conditions: human
[8] = Mammalian cytotoxicity assay (resazurin), HEK293; conditions: human, HEK293 cells
[9] = tested on: E. histolytica (HM1:IMSS); assay: ATP-bioluminescence cell growth and survival assay, E. histolytica trophozoites; assay type: cell-based; conditions: Entamoeba histolytica
[10] = Mammalian cytotoxicity assay (resazurin), HepG2; conditions: human, HepG2 cells
[11] = tested on: C. difficile (630, ATCC BAA-1382); assay: Broth microdilution MIC assay, C. difficile; assay type: cell-based, Clostridium difficile; conditions: 630 ATCC BAA-1382, median MIC; for MIC: Clostridioides difficile, ATCCBAA1382, read-out: antibacterial MIC C. difficile
[12] = in vitro; conditions: human; remark: listed apart in the source
[13] = tested on: C. albicans (ATCC 90028) and C. neoformans (H99, ATCC 208821); assay: Broth microdilution MIC assay, fungi; assay type: cell-based
[14] = tested on: M. tuberculosis; conditions: cited from earlier work
[15] = physchem
[16] = in vitro; conditions: human, Caco-2, pH 7.4
[17] = read-out: antiparasitic IC50 L. donovani
[18] = read-out: antiparasitic pIC50 ± SE L. donovani (converted)
[19] = PBS, pH 7.4, Solubility µM (PBS), PBS pH 7.4, 24 h
[20] = water, Solubility µM (H2O), 24 h

| Compound | MIC [3] [µg/mL] | antibacterial MIC ESKAPE [4] [µg/mL] | IC50 [5, 17] [µM] | IC50 [5, 18] [µM] | solubility at 24 h [6, 19] [µM] | solubility at 24 h [6, 20] [µM] | CC50 at 24 h [8] [µM] | CC50 at 24 h [10] [µM] | antibacterial MIC C. difficile [11] [µg/mL] | MIC [11] [µg/mL] | antifungal MIC [13] [µg/mL] | other results |
| --- | --- | --- | --- | --- | --- | --- | --- | --- | --- | --- | --- | --- |
| O=c1c2nc([N+](=O)[O-])cn2ccn1Cc1ccccc1 [17b, 7-Benzyl-2-nitroimidazo[1,2-a]pyrazin-8(7H)-one] | > 32 | > 32 | > 80 | > 79.4 | < 5 | < 5 | – | – | – | – | – | antibacterial MIC M. tuberculosis hypoxia [1]: 4.0 to 8.0 µg/mL; CC50 at 24 h [2]: 105 µM; CC50 at 24 h [7]: 98 to 123 µM |
| O=c1c2nc([N+](=O)[O-])cn2ccn1C1CCCCC1 [17t, 7-Cyclohexyl-2-nitroimidazo[1,2-a]pyrazin-8(7H)-one] | > 32 | >32 | > 80 | > 79.4 | < 10 | < 10 | 112 | 123 | >64 | > 64 | – | IC50 ([9]; read-out: antiparasitic IC50 E. histolytica): > 50 µM; IC50 ([9]; read-out: antiparasitic pIC50 ± SE E. histolytica (converted)): > 50.1 µM; CC50 at 24 h ([7]; HepG2 and HEK293 cells): 98 to 123 µM |
| O=c1[nH]c(-c2ccccc2)cn2cc([N+](=O)[O-])nc12 [24a, 2-Nitro-6-phenylimidazo[1,2-a]pyrazin-8(7H)-one] | > 32 | >32 | > 80 | > 79.4 | – | – | – | – | >64 | > 64 | >32 | CC50 [12]: > 100 µM; CC50 [2]: > 100 µM; MIC ([13]; Candida albicans, read-out: antifungal MIC): > 32 µg/mL |
| FC(F)(F)Oc1ccc(CO[C@@H]2COc3nccn3C2)cc1 [compound 9, S-des-nitro-PA-824] | – | – | – | – | – | – | – | – | – | – | – | MIC M. tuberculosis aerobic growth ([14]; aerobic growth): > 160 µM; MIC M. tuberculosis anaerobic growth ([14]; anaerobic growth): > 500 µM |
| O=[N+]([O-])c1cn2c(n1)OC[C@@H](OCc1ccc(OC(F)(F)F)cc1)C2 [pretomanid 6, pretomanid, reference compound] | – | > 32 | – | – | – | – | > 100 | > 100 | – | – | > 32 | solubility [15]: 11.3 ± 3.07 µM (≈ 4.06 µg/mL); solubility ([15]; pH 7.4): 10.6 ± 1.76 µM (≈ 3.81 µg/mL); Papp A→B at 2 h, 2 µM [16]: 29 ×10⁻⁶ cm/s; Papp B→A at 2 h, 2 µM [16]: 22 ×10⁻⁶ cm/s |

Reference: PMC6311682, “Design, Synthesis, and Biological Evaluation of 2-Nitroimidazopyrazin-one/-es with Antitubercular and Antiparasitic Activity” (Journal of Medicinal Chemistry, 2018)
